Assay results taken from US20240270744A1 (Hoffmann-La Roche Inc., priority 2021, published 2024).
Read-outs that look alike come from different tables or passages of the source.

Assays:
[1] = biological target: human GABAA α5β2γ1 receptor (Homo sapiens (Human), UniProt P31644+Q8N1C3); assay: Radioligand binding assay, competition for [3H]RO7239181, γ1-containing GABAA subtypes; conditions: Table 1; [3H]RO7239181 displacement, membranes from HEK293F cells, mean of two determinations
Experimental: The affinity of compounds at GABAA γ1 subunit-containing receptors was measured by competition for [^3H]RO7239181 (67.3 Ci/mmol; Roche) binding to membranes from HEK293F cells (ThermoFisher R79007) expressing human (transiently transfected) receptors of composition α5β2γ1, α2β2γ1, α1β2γ1. For better protein expression of the α2 subunit-containing receptors, the 28 amino acid long signal peptide (Met1 to Ala28) of the human GABAA α2 subunit was substituted by the 31 amino acid long signal peptide (Met1 to Ser31) of human GABAA α5 subunit.
(§1) Harvested pellets from HEK293F cells expressing the different GABAA receptor subtypes were resuspended in Mannitol Buffer pH 7.2-7.4 (Mannitol 0.29 M, Triethylamine 10 mM, Acetic acid 10 mM, EDTA 1 mM plus protease inhibitors (20 tablets Complete, Roche Diagnostics Cat. No. 05 056 489 001 per liter)), washed two times and then resuspended at 1:10 to 1:15 dilution in the same buffer. Cell disruption was performed by stirring the suspension in a Parr vessel #4637 at 435 psi for 15 minutes, and then the suspensions were centrifuged at 1000×g for 15 minutes at 4° C. (Beckman Avanti J-HC: rotor JS-4.2). The supernatant (S1) was transferred in a 21 Schott flask and the pellet (P1) was resuspended with Mannitol Buffer up to 175 ml. The resuspended pellet was transferred into a 250 ml Corning centrifugal beaker and centrifuged at 1500×g for 10 minutes at 4° C. (Beckman Avanti J-HC: rotor JS-4.2). The supernatant (S1) was then transferred in the 21 Schott flask and the pellet was discarded. The supernatants (S1) were centrifuged in 500 ml Beckman polypropylene centrifugal beaker at 15′000×g for 30 minutes at 4° C. (Beckman Avanti J-20 XP; rotor JLA-10.500). The pellet (P2) was resuspended with Mannitol Buffer 1:1 and frozen at −80° C. The supernatant (S2) was centrifuged in 100 ml Beckman polypropylene centrifugal tubes at 48000×g for 50 minutes at 4° C. (Beckman Avanti J-20 XP; rotor JA-18). The supernatant (S3) was discarded and the pellet (P3) was resuspended with 1:1 Mannitol Buffer. The P2 and P3 protein concentration was determined with the BIORAD Standard assay method with bovine serum albumin as standard and measured on the NANO-Drop 1000. The membrane suspension was aliquots (500 μl per tube) and stored at −80° C. until required.
(§2) Membrane homogenates were resuspended and polytronised (Polytron PT1200E Kinematica AG) in Potassium Phosphate 10 mM, KCl 100 mM binding buffer at pH 7.4 to a final assay concentration determined with a previous experiment.
Radioligand binding assays were carried out in a volume of 200 μL (96-well plates) which contained 100 μL of cell membranes, [3H]RO7239181 at a concentration of 1.5 nM (α5β2γ1) or 20-30 nM (α1β2γ1, α2β2γ1) and the test compound in the range of [0.3-10000]=10^−9 M. Nonspecific binding was defined by 10×10^−6 (α5β2γ1) and 30×10^−6 M RO7239181 and typically represented less than 5% (α5β2γ1) and less than 20% (β1β2γ1, α2β2γ1) of the total binding. Assays were incubated to equilibrium for 1 hour at 4° C. and then, membranes were filtered onto unifilter (96-well white microplate with bonded GF/C filters preincubated 20-50 minutes in 0.3% Polyethylenimine) with a Filtermate 196 harvester (Packard BioScience) and washed 4 times with cold Potassium Phosphate 10 mM pH 7.4, KCl 100 mM binding buffer. After anhydrousing, filter-retained radioactivity was detected by liquid scintillation counting. Ki values were calculated using Excel-Fit (Microsoft) and are the means of two determinations.
Representative test results, obtained by the above described assay measuring binding affinity to HEK293 cells expressing human (h) receptors, are shown in the Table 1.

[2] = biological target: human GABAA α1β3γ2 receptor (Homo sapiens (Human), UniProt P14867+P18507); assay: Radioligand binding assay, competition for [3H]Flumazenil, γ2-containing GABAA subtypes
Experimental: The affinity of compounds at GABAA γ2 subunit-containing receptors was measured by competition for [^3H]Flumazenil (81.1 Ci/mmol; Roche) binding to HEK293F cells expressing human (transiently transfected) receptors of composition α1β3γ2.
Harvested pellets from HEK293F cells expressing the different GABAA γ2 receptor subtypes were resuspended in Mannitol Buffer pH 7.2-7.4 and processed as described above for the cells expressing the GABAA γ1 subunit-containing receptors.
Assays were incubated to equilibrium for 1 hour at 4° C. and harvested onto GF/C uni-filters (Packard) by filtration using a Packard harvester and washing with ice-cold wash buffer (50 mM Tris; pH 7.5). After anhydrousing, filter-retained radioactivity was detected by liquid scintillation counting. Ki values were calculated using Excel-Fit (Microsoft) and are the means of two determinations.

[3] = biological target: human GABAA α2β2γ1 receptor (Homo sapiens (Human), UniProt P47869+Q8N1C3); assay: Radioligand binding assay, competition for [3H]RO7239181, γ1-containing GABAA subtypes; conditions: for LogSel: Log of the γ2/γ1 Ki ratio
Experimental: The affinity of compounds at GABAA γ1 subunit-containing receptors was measured by competition for [^3H]RO7239181 (67.3 Ci/mmol; Roche) binding to membranes from HEK293F cells (ThermoFisher R79007) expressing human (transiently transfected) receptors of composition α5β2γ1, α2β2γ1, α1β2γ1.
as §1, §2
Assays were incubated to equilibrium for 1 hour at 4° C. and then, membranes were filtered onto unifilter (96-well white microplate with bonded GF/C filters preincubated 20-50 minutes in 0.3% Polyethylenimine) with a Filtermate 196 harvester (Packard BioScience) and washed 4 times with cold Potassium Phosphate 10 mM pH 7.4, KCl 100 mM binding buffer. After anhydrousing, filter-retained radioactivity was detected by liquid scintillation counting. Ki values were calculated using Excel-Fit (Microsoft) and are the means of two determinations.

[4] = biological target: h-GABA-A α2β2γ1 (Homo sapiens (Human), UniProt P47869+Q8N1C3); assay: Two-electrode voltage clamp electrophysiology in Xenopus oocytes expressing GABAA receptors; format: cell-based; conditions: α2β2γ1 GABAA receptor subtype expressing oocytes; reference PAMs
Experimental: Xenopus laevis oocytes at maturation stages V-VI were used for the expression of cloned mRNA encoding GABAA receptor subunits. Oocytes ready for RNA micro-injection were bought from Ecocyte, Castrop-Rauxel, Germany and stored in modified Barth's medium (composition in mM: NaCl 88, KCl 1, NaHCO3 2.4, HEPES 10, MgSO4 0.82, CaNO3 0.33, CaCl2 0.33, pH=7.5) at 20° C. until the experiment.
Oocytes were plated in 96-well plates for microinjection using the Roboinject automated instrument (MultiChannelSystems, Reutlingen, Germany). Approximately 50 nL of an aqueous solution containing the RNA transcripts for the subunits of the desired GABAA receptor subtype was injected into each oocyte. […] Oocytes were kept in modified Barth's medium (composition in mM: NaCl 88, KCl 1, NaHCO3 […], HEPES 10, MgSO4 0.82, CaNO3 0.33, CaCl2 0.33, pH=7.5) at 20° C. until the experiment.
Electrophysiological experiments were performed using the Roboocyte instrument (MultiChannelSystems, Reutlingen, Germany) on days 3 to 5 after the micro-injection of mRNA. During the experiment the oocytes were constantly superfused by a solution containing (in mM) NaCl 90, KCl 1, HEPES 5, MgCl2 1, CaCl2 1 (pH 7.4). Oocytes were impaled by two glass microelectrodes (resistance: […]) which were filled with a solution containing KCl 1M+K-acetate 1.5 M and voltage-clamped to −80 mV. The recordings were performed at room temperature using the Roboocyte two-electrode voltage clamp system (Multichannelsystem). After an initial equilibration period of 1.5 min GABA was added for 1.5 min at a concentration evoking approximately 20% of a maximal current response (EC20). After another rest interval of 2.5 min GABA was again added evoking a response of similar amplitude and shape. […] Current traces were recorded at a digitization rate of 10 Hz during and shortly before and after the GABA application.
Each compound and concentration was tested on at least 3 oocytes. Different oocytes were used for different compound concentrations.
For the analysis, the digitized current traces of the first and second GABA response were superimposed and, if necessary, rescaled to equal maximal amplitudes. The ratio between the two responses during the time interval of test compound application was calculated point by point. The extremum of the resulting “ratio trace” was taken as the efficacy (“Fold increase”) of the compound expressed as “% modulation of GABA EC20” (100*(Fold increase−1)).

[5] = Table 1, [3H]Flumazenil displacement, HEK293F cells, mean of two determinations, read-out: Ki h-GABAA α1β3γ2
[6] = Ki h-GABAA α2β2γ1, Table 1, [3H]RO7239181 displacement, membranes from HEK293F cells, mean of two determinations
[7] = Table 1, Ki α1β3γ2 (nM)/Ki α2β2γ1 (nM)

Structure (SMILES): Cc1cn2c(n1)[C@H](C)N=C(c1c(F)cccc1F)c1c-2cnc(C(F)(F)F)c1Cl [Example 18, (7S)-11-chloro-9-(2,6-difluorophenyl)-4,7-dimethyl-12-(trifluoromethyl)-2,5,8,13-tetrazatricyclo[8.4.0.02,6]tetradeca-1(10),3,5,8,11,13-hexaene]
- Ki [1]: 5.9 nM
- Ki [2, 5]: 4170 nM
- Ki [3]: 131 nM
- Ki [3, 6]: 54.5 nM
- γ2/γ1 Selectivity Ratio [3, 7]: 77
- LogSel ([3]; Table 1): 1.88

Structure (SMILES): C[C@@H]1N=C(c2c(F)cccc2F)c2c(cnc(C(F)(F)F)c2Cl)-n2nc(C(=O)N[C@H]3C[C@@H](O)C3)nc21 [Example 23, (7S)-11-chloro-9-(2,6-difluorophenyl)-N-cis-(3-hydroxycyclobutyl)-7-methyl-12-(trifluoromethyl)-2,3,5,8,13-pentazatricyclo[8.4.0.02,6]tetradeca-1(10),3,5,8,11,13-hexaene-4-carboxamide]
- Ki [1]: 9.7 nM
- Ki [2, 5]: 14500 nM
- γ2/γ1 Selectivity Ratio [3, 7]: 144
- LogSel ([3]; Table 1): 2.16
- Ki ([3]; Table 1, [3H]RO7239181 displacement, membranes from HEK293F cells, mean of two determinations, read-out: Ki h-GABAA α2β2γ1): 101 nM
- Ki ([3]; Table 2, [3H]RO7239181 displacement, read-out: Ki h-GABAA α2β2γ1): 101 nM

Structure (SMILES): C[C@@H]1N=C(c2c(F)cccc2F)c2c(cnc(C(F)(F)F)c2Cl)-n2nc(C(=O)N[C@H]3C[C@H](O)C3)nc21 [Example 24, (7S)-11-chloro-9-(2,6-difluorophenyl)-N-trans-(3-hydroxycyclobutyl)-7-methyl-12-(trifluoromethyl)-2,3,5,8,13-pentazatricyclo[8.4.0.02,6]tetradeca-1(10),3,5,8,11,13-hexaene-4-carboxamide]
- Ki [1]: 2.8 nM
- Ki [2, 5]: 8380 nM
- Ki [3, 6]: 72.6 nM
- Ki ([3]; Ki h-GABAA α2β2γ1, Table 2, [3H]RO7239181 displacement): 72.6 nM
- γ2/γ1 Selectivity Ratio [3, 7]: 115
- LogSel ([3]; Table 1): 2.06

Structure (SMILES): Cc1ncc2n1-c1ccc(Cl)cc1C(c1ccccc1F)=NC2 [Midazolam, reference compound]
- potentiation of the GABA-induced current [4]: ~60%

Structure (SMILES): CN1C(=O)CN=C(c2ccccc2F)c2ccncc21 [RE-A, reference compound]
- Ki [2]: 179 nM
- Ki ([3]; Ki h-GABAA α2β2γ1, Table 3, reference compounds comparison): 10200 nM
- γ2/γ1 Selectivity Ratio ([3]; Table 3, Ki α1β3γ2/Ki α2β2γ1): 0.018

Structure (SMILES): Cc1nnc2n1-c1ccc(Cl)cc1C(c1ccccc1Cl)=NC2 [Triazolam, reference compound]
- potentiation of the GABA-induced current [4]: ~60%
